Structures are written as SMILES. Some results are limits rather than exact numbers.

This test deals with Arabidopsis thaliana SHMT. As to the kind of experiment: SHMT activity assay (ED50 SHMT), coupled with N5,N10-CH2-THF dehydrogenase, NADH at 340 nm. It counts as biochemical. The method, then: Determination of the ED50 SHMT was carried out as described hereinunder.
Purification of Arabidopsis thaliana SHMT
The following buffers were used during the purification protocol:
Buffer A (Lysis and Wash Buffer): • 20 mM Na-Phosphat (pH 7,4) • 500 mM NaCI • 40 mM Imidazole • 1.0 mM L-Serine • 0.5 mM Pyridoxal-5-phosphate • 0.5 mM DTT
Buffer B (Elution Buffer): • 20 mM Na-Phosphat (pH 7,4) • 500 mM NaCl • 250 mM Imidazole • 1.0 mM L-Serine • 0.5 mM Pyridoxal-5-phosphate • 0.5 mM DTT
All procedures were conducted at 4° C. or on ice. Pellets were suspended in Buffer A containing 1 mg/ml DNAse +Complete EDTA-free protease inhibitor tablet. Cells were lysed using sonication or a French Press device, using standard settings. Lysis was centrifuged at 40000×g for 25 minutes. The supernatant was filtered (0.22 μM) before loading onto a Ni-NTA column.
A gravity flow column containing Ni-NTA resin was equilibrated with 10 CV Buffer A and loaded with filtered cell lysate. The column was then washed with 10 CV Buffer A. Elution was afforded using Buffer B and collected manually as mini-factions. EDTA was added after elution to a final concentration of 1 mM. Fractions were pooled on the basis of the correct band for SHMT visualised via SDS-PAGE and staining.
SHMT Assay Buffer: • 50 mM KH2PO4 (pH 7,4) • 2.0 mM NAD+ • 7.5 mM DTT • 0.3 mM Tetrahydrofolic acid • 4% DMSO
Reaction Start: 20 mM L-Serine
The rate of N5,N10-CH2-THF formation catalyzed by SHMT was monitored at 340 nm by coupling with excess N5,N10-CH2-THF dehydrogenase, which converts NAD+to NADH. Reactions were initiated by adding 20 mM L-Serine. Inhibition of initial velocity was determined by adding various inhibitors of the SHMT reaction and monitored as described. Reactions were measured in a Bio Tek micro titer plate reader following the change in absorption with the formation of NADH for 30 mimnutes.

Setting [1] is: Table 2, Arabidopsis thaliana SHMT enzyme assay, values given as upper bounds.
[2] abbreviates: Table 2, values given as upper bounds.
Where [3] appears, read: Arabidopsis thaliana SHMT enzyme assay, values given as upper bounds.
Setting [4] is: inhibition of initial velocity of Arabidopsis thaliana SHMT.

In general, EC50 refers to the concentration needed to bring the measured effect to its halfway point. A higher EC50 goes with lower potency in that assay. As to `Cc1n[nH]c2c1C(c1cc(-c3nnn[nH]3)cc(-c3nnn[nH]3)c1)(C1CCC1)C(C#N)=C(N)O2` (stereo not drawn) [Compound 2.354], the EC50 under setting [1] is < 10 µM.

For the compound `CCC1(c2cc(Cl)cc(Cl)c2)C(C#N)=C(N)Oc2[nH]nc(C3CC3)c21` (stereo not drawn) [Compound 2.133.], the EC50 under setting [2] was < 1 µM.

As to `Cc1n[nH]c2c1C(c1cc(C#N)cc(-c3cccnc3)c1)(C1CCC1)C(C#N)=C(N)O2` (stereo not drawn) [Compound 2.350], the EC50 under setting [1] is < 0.01 µM.

Consider `Cc1n[nH]c2c1C(c1cc(Cl)cc(C#N)c1)(C1CC1)C(C#N)=C(N)O2` (stereo not drawn) [Compound 2.359], for which the half-maximal effective concentration (EC50) under setting [1] is < 0.01 µM.

Regarding `COc1c(Cl)cc(C2(C(C)C)C(C#N)=C(N)Oc3[nH]nc(C)c32)cc1Cl` (stereo not drawn) [Compound 2.331], under setting [1], the concentration giving a half-maximal response (EC50) was < 0.01 µM.

Consider `Cc1n[nH]c2c1C(c1cc(Cl)cc(Oc3ccccc3)c1)(C1CCC1)C(C#N)=C(N)O2` (stereo not drawn) [Compound 2.179.], for which the EC50 under setting [2] is < 0.1 µM.

Consider `Cc1n[nH]c2c1C(c1cc(C#N)cc(CC(=O)O)c1)(C1CCC1)C(C#N)=C(N)O2` (stereo not drawn) [Compound 2.627], for which the EC50 under setting [2] was < 0.1 µM.

With `CCC1(c2cccc(Oc3ccccc3)c2)C(C#N)=C(N)Oc2[nH]nc(C)c21` (stereo not drawn) [Compound 2.1.], under setting [2], the EC50 is < 0.1 µM.

Regarding `N#CC1=C(N)Oc2[nH]ncc2C1(c1cc(I)cc(I)c1)C1CCC1` (stereo not drawn) [Compound 2.309], under setting [1], the EC50 is < 0.01 µM.

In the case of `CCOc1n[nH]c2c1C(c1cc(Br)cc(C#N)c1)(C1(F)CC1)C(C#N)=C(N)O2` (stereo not drawn) [Compound 2.395], the concentration giving a half-maximal response (EC50) under setting [1] is < 1 µM.

`CSc1ccc(C2(C(C)C)C(C#N)=C(N)Oc3[nH]nc(C)c32)cc1` (stereo not drawn) [Compound 2.123.]: the EC50 under setting [2] is < 0.1 µM.

For the compound `Cc1n[nH]c2c1C(c1cc(C#N)cc(-c3ccc(O)c(C(F)(F)F)c3)c1)(C1CCC1)C(C#N)=C(N)O2` (stereo not drawn) [Compound 2.459], the EC50 under setting [2] is < 0.01 µM.

As for `COC(=O)c1ccc(-c2cc(C#N)cc(C3(C4CCC4)C(C#N)=C(N)Oc4[nH]nc(C)c43)c2)cc1Cl` (stereo not drawn) [Compound 2.546], the EC50 under setting [2] is < 0.1 µM.

For the compound `CCCC1(c2cc(Cl)cc(C#N)c2)C(C#N)=C(N)Oc2[nH]nc(C(C)C)c21` (stereo not drawn) [Compound 2.584], under setting [2], the EC50 was < 0.01 µM.

In the case of `Cc1n[nH]c2c1C(c1cc(CCc3nnn[nH]3)cc(-c3nnn[nH]3)c1)(C1CCC1)C(C#N)=C(N)O2` (stereo not drawn) [Compound 2.655], under setting [3], the concentration for a half-maximal effect (EC50) is < 10 µM.

Consider `CCCC1(c2cc(Br)cc(C#N)c2)C(C#N)=C(N)Oc2[nH]nc(C(C)C)c21` (stereo not drawn) [Compound 2.585], for which the concentration for a half-maximal effect (EC50) under setting [2] is < 0.1 µM.

`Cc1n[nH]c2c1C(c1cc(C#N)cc(-c3cc(C(=O)O)cc(C(F)(F)F)c3)c1)(C1CCC1)C(C#N)=C(N)O2` (stereo not drawn) [Compound 2.644]: the EC50 under setting [2] is < 0.01 µM.

For the compound `Cc1n[nH]c2c1C(c1cc(-c3ccccc3)cs1)(C1CC1)C(C#N)=C(N)O2` (stereo not drawn) [Compound 4.64], the EC50 under setting [4] was < 1 µM.

As for `CCc1n[nH]c2c1C(c1cc(C#N)cc(C#N)c1)(C(C)C)C(C#N)=C(N)O2` (stereo not drawn) [Compound 2.520], the EC50 under setting [2] is < 0.01 µM.

As to `Cc1n[nH]c2c1C(c1cc(Cl)c(OCC(=O)O)c(Cl)c1)(C1CCC1)C(C#N)=C(N)O2` (stereo not drawn) [Compound 2.504], the EC50 under setting [2] was < 1 µM.

With `Cc1n[nH]c2c1C(c1cc(Cl)cc(Oc3ccccc3Cl)c1)(C1CCC1)C(C#N)=C(N)O2` (stereo not drawn) [Compound 2.236], the EC50 under setting [1] is < 0.01 µM.

As for `Cc1n[nH]c2c1C(c1cc(Cl)cc(CCCc3nnn[nH]3)c1)(C1CCC1)C(C#N)=C(N)O2` (stereo not drawn) [Compound 2.677], the EC50 under setting [3] was < 0.01 µM.

In the case of `COC(=O)c1cc(-c2cc(C#N)cc(C3(C4CCC4)C(C#N)=C(N)Oc4[nH]nc(C)c43)c2)ccc1Cl` (stereo not drawn) [Compound 2.509], the EC50 under setting [2] was < 0.01 µM.

Take `Cc1n[nH]c2c1C(c1ccc(CCC#N)c(C#N)c1)(C1CCC1)C(C#N)=C(N)O2` (stereo not drawn) [Compound 2.647]: under setting [2], the EC50 was < 0.01 µM.

As to `Cc1n[nH]c2c1C(c1cc3cc(Cl)ccc3s1)(C1CCC1)C(C#N)=C(N)O2` (stereo not drawn) [Compound 4.9], the EC50 under setting [4] is < 0.01 µM.

As for `Cc1n[nH]c2c1C(c1cc(Cl)cc(Br)c1)(C1CCC1)C(C#N)=C(N)O2` (stereo not drawn) [Compound 2.207.], under setting [2], the EC50 was < 0.01 µM.

With `CCC1(c2cc(F)c(O)c(F)c2)C(C#N)=C(N)Oc2[nH]nc(C)c21` (stereo not drawn) [Compound 2.34.], the 50% effective concentration (EC50) under setting [2] was < 10 µM.

Source of the values: patent publication US9480259B2, “Pyrazolopyrans having herbicidal and pharmaceutical properties” (BASF SE, priority 2012, dated 2016).
